Assay results published in patent US20110038884A1, “IMMUNOPOTENTIATING AGENT COMPRISING EP1 AGONIST” (NATIONAL UNIVERSITY CO., HAMAMATSU UNIVER. SCHOOL OF …, priority 2008, published 2011).

Columns and labels:
I-A^b = experiment: Expression of cell-surface molecules in cultured Langerhans cells (flow cytometry): I-A^b; type: cell-based, C57BL/6 mice; conditions: Compound A 1 μM, Langerhans cells cultured a half-day; control group 12.1
Experimental: (§1) Using the same procedure as in Example 2 above, the Langerhans cells of C57BL/6 (36) mice were isolated, following which Compound A (1 μM) was added as an EP1 agonist and the cells were cultured for a half-day in a culture medium (cRPMI1640 medium; Sigma-Aldrich Japan). The cultured cells were then stained using antibodies specific to the cell-surface molecules I-A^b, B7-1 (CD80), B7-2 (CD86), CD40 and ICAM-1 (CD54), and changes in the expression of these molecules were analyzed by flow cytometry. An experimental group treated in the same way, excluding the addition of Compound A, was established as a control.

B7-2 (CD86) = experiment: Expression of cell-surface molecules in cultured Langerhans cells (flow cytometry): B7-2; type: cell-based, C57BL/6 mice; conditions: Compound A 1 μM, Langerhans cells cultured a half-day; control group 65.5
Experimental: as §1

B16 melanoma cells = experiment: Life-prolonging effects in melanoma-inoculated mice; type: in vivo, B6 mice; conditions: 8 animals per group
Experimental: B16 melanoma cells (2×10^5) were transplanted into B6 mice in the same way as in Example 4. On day 5 after transplantation, the respective test substances (TRP-2 (10 μg per side of an auricle), Compound A (20 μL of a 100 μM solution per side of an auricle)) were administered to the right auricles in B6 mice by the same method as in Example 2. The same treatment was carried out ten days later on the left auricle, following which the survival of the mice in each experimental group was examined. The following groups were established as experimental groups (each group being composed of 8 animals): (1) a group in which only TS was carried out, (2) a group in which compound A was applied after TS, and (3) a group in which TRP-2 and Compound A were applied after TS.

CD40 = experiment: Expression of cell-surface molecules in cultured Langerhans cells (flow cytometry): CD40; type: cell-based, C57BL/6 mice; conditions: Compound A 1 μM, Langerhans cells cultured a half-day; control group 28.7
Experimental: as §1

splenic lymphocytes = experiment: Splenic lymphocyte proliferative ability test (WST-1); type: in vivo, B6 mice; conditions: cell proliferation ratio; splenic lymphocytes recovered one week after application after TS, cultured 3 days with IL-2 (10 U/mL); TS-only group 4.2
Experimental: As in Example 6, TS was carried out, after which Compound A (20 μL of a 100 μM solution per side of an auricle) was applied as the substance. One week after application of the test substance, splenic lymphocytes were recovered, then cultured at 37° C. for 3 days in a culture medium (cRPMI1640 medium: Sigma-Aldrich Japan) containing IL-2 (10 U/mL). Cell proliferative ability tests were carried out using WST-1 (Takara Bio Inc.) as the cell proliferation reagent (absorbance at 450 nm). Experimental groups similar to those in Example 6 were established (with each group containing three animals).
The relative values of the absorption intensities in each experimental group, based on an arbitrary value of 1 for the absorbance at 450 nm when all of the WST-1 added had decomposed to formazan, indicate the percent uptake of WST-1; that is, the cell proliferation ratio.

B7-1 (CD80) = experiment: Expression of cell-surface molecules in cultured Langerhans cells (flow cytometry): B7-1; type: cell-based, C57BL/6 mice; conditions: Compound A 1 μM, Langerhans cells cultured a half-day; control group 5.9
Experimental: as §1

[1] = tested on: TRP-2-specific CTLs in cervical lymph nodes; experiment: Activation of cytotoxic T lymphocytes in cervical lymph nodes: TRP-2-specific CTL frequency by tetramer flow cytometry after tape stripping; type: in vivo, C57BL/6 (B6) mice; conditions: relative to 100 = total mononucleocytes in cervical lymph nodes; one week after application to tape-stripped auricles; TRP-2 10 mg per side, Compound A 20 μL of 100 μM per side
Experimental: The corneal layer of the auricles of C57BL/6 (B6) mice was destroyed by repeatedly carrying out (ten times) a stripping operation using adhesive tape, following which an antigen peptide or EP1 agonist was applied as a test substance. Using a solution obtained by dissolving a melanoma-specific antigen peptide (available from Peptide Business Department, Accord K.K.; abbreviated below as TRP-2) as the antigen peptide in 70% ethanol, 10 mg of the antigen peptide was applied per side of an auricle. […] One week after application of the test substance, the cervical lymph nodes were removed. The TRP-2-specific CTL frequency, relative to an arbitrary value of 100 representing the total number of mononucleocytes in the cervical lymph nodes, was determined by flow cytometric analysis (FACScaliber; Becton, Dickinson and Company) with a tetramer (Medical & Biological Laboratories Co., Ltd.). Four experimental groups were established: (1) a group in which only tape stripping (abbreviated below as TS) was carried out, (2) a group in which TRP-2 was applied after TS, (3) a group in which Compound A was applied after TS, and (4) a group in which TRP-2 and Compound A were applied after TS.

ICAM-1 (CD54) = experiment: Expression of cell-surface molecules in cultured Langerhans cells (flow cytometry): ICAM-1; type: cell-based, C57BL/6 mice; conditions: Compound A 1 μM, Langerhans cells cultured a half-day; control group 36.5
Experimental: as §1

NK1.1+ cells = experiment: Activation of NK1.1+ cells in cervical lymph nodes; type: in vivo, B6 mice; conditions: relative to 100 = total mononucleocytes in cervical lymph nodes; two weeks after application of 20 μL of 100 μM per side after TS; TS-only group 2.7
Experimental: As in Example 1, the corneal layer of the auricles of B6 mice was destroyed by repeatedly stripping ten times using adhesive tape, following which an EP1 agonist (Compound A: 20 μL of a 100 μM solution per side of an auricle) was applied as the test substance. Two weeks after application of the test substance, the cervical lymph nodes were removed. The frequency of NK1.1+ cells, relative to an arbitrary value of 100 representing the total number of mononucleocytes in the cervical lymph nodes, was determined by flow cytometric analysis. The following groups were established as experimental groups: (1) a group in which only TS was carried out, and (2) a group in which Compound A was applied after TS.

[2] = tested on: EL4 cells not subjected to NP pulsing; experiment: NP-specific CTL specific lysis of calcein-labeled EL4 cells, not NP pulsed; type: in vivo, C57BL/6 (B6) mice; conditions: 3 hours
NP-pulsed EL4 cells = experiment: NP-specific CTL specific lysis of calcein-labeled EL4 cells, NP pulsed; type: in vivo, C57BL/6 (B6) mice; conditions: NP-pulsed EL4 cells (10 μg/mL NP), 3 hours
[3] = tested on: isolated epidermal Langerhans cells; experiment: Activation of cytotoxic T lymphocytes in isolated Langerhans cells co-cultured with lymphocytes; type: cell-based, C57BL/6 (B6) mouse; conditions: relative to 100 = total mononucleocytes in culture medium; TRP-2 10 μg/mL, Compound A 1 μM; 7 days co-culture
Experimental: An epidermal cell suspension was prepared by trypsinizing an auricle epidermal sheet removed over a given surface area from the corneal layer on one of the auricles in C57BL/6 (B6) mouse. The resulting epidermal cell suspension was subjected to panning using an antibody specific for I-A^b antigen in order to isolate epidermal Langerhans cells. Each test substance (TRP-2 (concentration, 10 μg/mL) and Compound A (1 μM)) was added to the isolated Langerhans cells (cell density, 10^5 cells/mL), following which the cells were cultured in a culture medium (cRPMI1640 medium; Sigma-Aldrich Japan). After a half-day, the cells were then co-cultured for 7 days with spleen cell lymphocytes isolated from the cervical lymph nodes of B6 mice. The frequency of TRP-2-specific CTLs, relative to an arbitrary value of 100 representing the total number of mononucleocytes in the culture medium, was subsequently determined by flow cytometric analysis (FACScaliber; Becton, Dickinson and Company) with a tetramer (Medical & Biological Laboratories Co., Ltd.). The following groups were established as experimental groups: (1) an untreated group, (2) a group in which TRP-2 was added, and (3) a group in which TRP-2 and Compound A were both added.

Which “Expression of each cell-surface molecule (%): I-A^b” value (I-A^b) does the source give for `CCCC[C@H](C)C[C@H](O)/C=C/[C@H]1[C@H](O)CC(=O)[C@@H]1CC(=O)C1CCC(C(=O)O)CC1` (stereo partly drawn) [Compound A, (13E)-(11α,15S,17S)-2,5-Ethano-6,9-dioxo-11,15-dihydroxy-17,20-dimethylprosta-13-enoic acid] here?
Its value is 28.3%.

And the “Expression of each cell-surface molecule (%): B7-2” value (B7-2 (CD86))?
The value was 65.2%.

And the Number of survivors (B16 melanoma cells; day 14 after inoculation of B16 melanoma cells)?
The Number of survivors was 8.

What about the Number of survivors (B16 melanoma cells; day 16 after inoculation of B16 melanoma cells) of the same compound?
The Number of survivors was 8.

What about the Number of survivors (B16 melanoma cells; day 24 after inoculation of B16 melanoma cells) of the same compound?
Its Number of survivors is 8.

And the Number of survivors (B16 melanoma cells; day 25 after inoculation of B16 melanoma cells)?
The Number of survivors was 8.

And the Number of survivors (B16 melanoma cells; day 28 after inoculation of B16 melanoma cells)?
Its Number of survivors is 8.

And the Number of survivors (B16 melanoma cells; day 30 after inoculation of B16 melanoma cells)?
Its Number of survivors is 8.

What about the Number of survivors (B16 melanoma cells; day 32 after inoculation of B16 melanoma cells) of the same compound?
Its Number of survivors is 8.

What about the Number of survivors (B16 melanoma cells; day 34 after inoculation of B16 melanoma cells) of the same compound?
The Number of survivors was 8.

What about the Number of survivors (B16 melanoma cells; day 36 after inoculation of B16 melanoma cells) of the same compound?
Its Number of survivors is 4.

What about the Number of survivors (B16 melanoma cells; day 38 after inoculation of B16 melanoma cells) of the same compound?
The Number of survivors was 0.

What about the Number of survivors (B16 melanoma cells; day 41 after inoculation of B16 melanoma cells) of the same compound?
The Number of survivors was 0.

And the Number of survivors (B16 melanoma cells; day 44 after inoculation of B16 melanoma cells)?
Its Number of survivors is 0.

And the Number of survivors (B16 melanoma cells; day 46 after inoculation of B16 melanoma cells)?
The Number of survivors was 0.

And the Number of survivors (B16 melanoma cells; day 50 after inoculation of B16 melanoma cells)?
Its Number of survivors is 0.

What about the Number of survivors (B16 melanoma cells; day 52 after inoculation of B16 melanoma cells) of the same compound?
Its Number of survivors is 0.

What about the Number of survivors (B16 melanoma cells; day 55 after inoculation of B16 melanoma cells) of the same compound?
The Number of survivors was 0.

And the Number of survivors (B16 melanoma cells; day 56 after inoculation of B16 melanoma cells)?
Its Number of survivors is 0.

And the “Expression of each cell-surface molecule (%): CD40” value (CD40)?
Its value is 30.8%.

What about the “Uptake of WST-1 (%)” value (splenic lymphocytes) of the same compound?
The value was 27.3%.

And the “Expression of each cell-surface molecule (%): B7-1” value (B7-1 (CD80))?
Its value is 8.8%.

And the “Ratio of TRP-2-specific CTLs” value [1]?
Its value is 0.53.

And the “Expression of each cell-surface molecule (%): ICAM-1” value (ICAM-1 (CD54))?
Its value is 46.3%.

What about the “Ratio of NK1.1+ cells” value (NK1.1+ cells) of the same compound?
Its value is 3.6.

Which results are given for “NP: influenza virus-specific antigen peptide, nucleoprotein (NP) 366-374, Ala Ser Asn Glu Asn Met Glu Thr Met (ASNENMETM; UniProt P03466 366-374, looked up, fragment)”?
Specific lysis [2]: 1.2%; Specific lysis (NP-pulsed EL4 cells): 11.9%

Which results are given for “TRP-2: melanoma-specific antigen peptide, tyrosinase-related protein 2 181-188, Val Tyr Asp Phe Phe Val Trp Leu (VYDFFVWL; Tyrosinase-related protein 2 residues 181-188) [reference compound]”?
Ratio of TRP-2-specific CTLs [3]: 3.2; Ratio of TRP-2-specific CTLs [1]: 0.44
